Starred links: 1 amine or outer side, 2 acyl side, 3 side chain; linkers in the order of their positions; H or OH if unused. Residues, ends and D or L forms follow the SMILES beside them. *: point of attachment. AFC = O=c1cc(C(F)(F)F)c2ccc(N*)cc2o1; Suc = O=C(CCC(=O)[*:2])[*:1]
System: T. solium purified cysteine protease
Test: Human IgG degradation, western blot (Step IV)
Type: biochemical, Taenia solium
Settings: overnight, 37°C, 18 hrs
Description: To conduct this assessment, a western blot was performed. IgG digestion was detected by incubating 20 ul of T. solium purified enzyme or T. […] extract with 1 ug of human IgG (Sigma, St. Louis) in a final volume of 100 ul of assay buffer. Exogenous thiol activation was assessed by incubating the assay in the presence or absence of cysteine. The catalytic class of the IgG protease was determined by pre-incubating the following proteinase inhibitors at their active concentrations, with the enzyme: E 64 (10^-6 M , cysteine proteinases), phenylmethylsulfonyl fluoride (PMSF) (10^-3 M, serine proteinases), pepstatin A (10^-6M, aspartic proteinases), and 1,10 phenanthroline (10^-3 M, metalloproteinases), and the vehicle, Mu-Leu-Tyr-AFC (10^-3 M). After addition of IgG, the assay was incubated overnight (37°C, 18 hrs). Subsequently, 100 ul of the mixture was boiled in sodium dodecyl sulfate polyacrylamide gel electrophoresis (SDS-PAGE) sample buffer with 2% 2-mercaptoethanol, separated by 12.5% SDS-PAGE, and blotted onto a polyvinylidene difluoride membrane. Tris buffered saline containing 0.1 % bovine serum albumin and 0.05% Tween 20 (TBS-BSA) was used to block nonspecific binding. […]

Structure (SMILES) | inhibition of cleavage of human IgG
CC(C)CC(NC(=O)C1OC1C(=O)O)C(=O)NCCCCNC(=N)N (centres unmarked) [E64, reference compound] | Inhibition was noted
CC(C)C[C@H](NC(=O)CCC(=O)O)C(=O)N[C@@H](Cc1ccc(O)cc1)C(=O)Nc1ccc2c(C(F)(F)F)cc(=O)oc2c1 [suc-Leu-Tyr-AFC] (Suc-Leu-Tyr-{AFC}) | ability to inhibit
